Like-named read-outs stand apart in the source and are kept apart here.
Columns and labels:
Sprague-Dawley rats = experiment: Liver p53 and DNA damage markers, Western blotting; type: in vivo, Rattus norvegicus; conditions: for Emax: Rattus norvegicus
Experimental: Liver p53, Mdm2 and DNA damage related markers were assessed by Western blotting analysis. Proteins of the liver homogenates were quantified using Coomassie Plus Protein Assay Reagent (Pierce, Täby, Sweden). The samples were subjected to SDS-PAGE, the separated proteins were transferred to a polyvinylidene difluoride membrane (Bio-Rad, Hercules, CA, USA) and blocked in 10% non-fatty milk for 1 h. The protein bands were subsequently probed with antibodies overnight at 4°C.
The primary antibody for total p53 DO-1 was purchased from Novocastra (Newcastle, UK). Primary antibodies for DNA-damage marker were phospho-p53 (Ser-15), phospho-Chk2 (Thr-68), phospho-Mdm2 (Ser-166), phospho-Akt (Ser-473) (Cell Signaling Technology, Stockholm, Sweden) phospho-Erk (Tyr-204) (E-4) and the loading control Cdk2 (M2) (sc-7383 resp. sc-163, Santa Cruz Biotechnology, Santa Cruz, CA, USA). Secondary antibodies used were goat anti-rabbit IgG, goat anti-mouse IgG (sc-2004 resp. sc-2005, Santa Cruz Biotechnology). No signals were obtained when primary antibodies were omitted. […]. The results were visualized by the ECL or ECL plus detection kits (Amersham GE Healthcare Bio-sciences AB, Uppsala, Sweden). Cdk2 was used as a loading control.
Data were also analyzed using the BMD method, which is based on dose-response modeling of the full data set using a nested family of exponential and Hill models. The analyses were done on data of males and females combined, using sex as a covariate. […] In that case, different Critical Effect Doses (CEDs) and CEDs at the lowest bound of the confidence interval (CED-L) were generated for each sex. If no difference between sexes is detected, a CED and CED-Ls for the combined data is generated. However, this was also done if the curve fits are close, and separate analyses for males and females were then performed manually. […]

[1] = cited from earlier work
[2] = F, CES 5%, model E4, adipose tissue concentration based
[3] = F, CES 5%, model E5, adipose tissue concentration based
[4] = F, CES 100%, model E4, adipose tissue concentration based
[5] = F, CES 100%, model E5, adipose tissue concentration based
[6] = females, CES 5%, total dose based
[7] = females, CES 100%, adipose tissue concentration based
[8] = females, CES 100%, total dose based
[9] = females, adipose tissue concentration based

In the case of `Clc1cc(Cl)c(-c2cc(Cl)c(Cl)c(Cl)c2Cl)cc1Cl` [PCB 180, 2,2′,3′,4,4′,5,5′-heptachlorobiphenyl], the “CED, Liver p53” value (Sprague-Dawley rats; [2]) is reported as 65.2 µg/g lipid, the “CED-L, Liver p53” value (Sprague-Dawley rats; [2]) is reported as 30.0 µg/g lipid and the “CED, Liver p53 Ser15” value (Sprague-Dawley rats; [3]) is reported as 361 µg/g lipid. The “CED, Liver pChk2 Thr68” value (Sprague-Dawley rats; [3]) was 337 µg/g lipid, the “CED-L, Liver p53 Ser15” value (Sprague-Dawley rats; [3]) was 124 µg/g lipid and the “CED-L, Liver pChk2 Thr68” value (Sprague-Dawley rats; [3]) was 98.2 µg/g lipid. The “CED, Liver p53” value (Sprague-Dawley rats; [4]) was 2240 µg/g lipid, the “CED-L, Liver p53” value (Sprague-Dawley rats; [4]) was 1053 µg/g lipid and the “CED, Liver p53 Ser15” value (Sprague-Dawley rats; [5]) was 438 µg/g lipid. The “CED, Liver pChk2 Thr68” value (Sprague-Dawley rats; [5]) was 382 µg/g lipid, the “CED-L, Liver p53 Ser15” value (Sprague-Dawley rats; [5]) was 411 µg/g lipid and the “CED-L, Liver pChk2 Thr68” value (Sprague-Dawley rats; [5]) was 165 µg/g lipid. The Emax (Sprague-Dawley rats; F, model E4, controls vs high dose according to the fitted model, read-out: Maximum response, Liver p53) was 141%, the Emax (Sprague-Dawley rats; females, controls vs high dose, fitted model, read-out: Liver p53, Maximum response) was 142% and the Emax (Sprague-Dawley rats; females, controls vs high dose, fitted model, read-out: Liver p53 Ser15, Maximum response) was 181%. The Emax (Sprague-Dawley rats; females, controls vs high dose, fitted model, read-out: Liver pChk2 Thr68, Maximum response) was 185%, the Emax (Sprague-Dawley rats; F, model E5, controls vs high dose according to the fitted model, read-out: Maximum response, Liver p53 Ser15) was 181% and the Emax (Sprague-Dawley rats; F, model E5, controls vs high dose according to the fitted model, read-out: Maximum response, Liver pChk2 Thr68) was 185%. The “Liver p53, CED” value (Sprague-Dawley rats; [6]) was 14.1 mg/kg bw, the “Liver p53, CED-L” value (Sprague-Dawley rats; [6]) was 5.89 mg/kg bw and the “Liver p53 Ser15, CED” value (Sprague-Dawley rats; [6]) was 79.2 mg/kg bw. For the same molecule, the “Liver p53 Ser15, CED-L” value (Sprague-Dawley rats; [6]) was 19.5 mg/kg bw, the “Liver pChk2 Thr68, CED” value (Sprague-Dawley rats; [6]) was 72.9 mg/kg bw and the “Liver pChk2 Thr68, CED-L” value (Sprague-Dawley rats; [6]) was 31.5 mg/kg bw. For the same molecule, the “Liver p53 Ser15, CED (100%)” value (Sprague-Dawley rats; [7]) was 438 µg/g lipid, the “Liver pChk2 Thr68, CED (100%)” value (Sprague-Dawley rats; [7]) was 382 µg/g lipid and the “Liver p53, CED” value (Sprague-Dawley rats; [8]) was 472 mg/kg bw. The “Liver p53, CED-L” value (Sprague-Dawley rats; [8]) was 210 mg/kg bw, the “Liver p53 Ser15, CED” value (Sprague-Dawley rats; [8]) was 101 mg/kg bw and the “Liver p53 Ser15, CED-L” value (Sprague-Dawley rats; [8]) was 93.0 mg/kg bw. For the same molecule, the “Liver pChk2 Thr68, CED” value (Sprague-Dawley rats; [8]) was 81.1 mg/kg bw, the “Liver pChk2 Thr68, CED-L” value (Sprague-Dawley rats; [8]) was 41.8 mg/kg bw and the “Liver p53, CED” value (Sprague-Dawley rats; [9]) was 2240 µg/g lipid. For the same molecule, the “Liver p53, CED-L” value (Sprague-Dawley rats; [9]) was 30000 ng/g lipid, the Elimination half-life ([1]; adult humans, estimated) was 11.5 years and the Elimination half-life ([1]; early adolescent children) was 9.8 years.
